Data as given in PubChem BioAssay (NCI).
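Briefly, cells in 96-well plates were exposed to five compound concentrations for 48 h, and endpoints were estimated by linear interpolation. GI50 is the concentration that inhibits growth by half. The concentration for full growth arrest is given as TGI.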

Experiments:
Experiment in all cases: growth of human tumour cells (NCI), 48 h
[1] = test system: HL-60(TB) leukemia
[2] = test system: MALME-3M melanoma
[3] = test system: HCT-116 colon
[4] = test system: OVCAR-4 ovarian
[5] = test system: OVCAR-8 ovarian
[6] = test system: PC-3 prostate
[7] = test system: NCI-H460 lung
[8] = test system: HOP-62 NSCLC
[9] = test system: A549 NSCLC
[10] = test system: TK-10 renal
[11] = test system: EKVX NSCLC
[12] = test system: HS 578T breast
[13] = test system: SF-295 CNS
[14] = test system: SK-MEL-2 melanoma
[15] = test system: SK-MEL-28 melanoma
[16] = test system: HCC-2998 colon
[17] = test system: MDA-MB-231 breast
[18] = test system: SF-268 CNS
[19] = test system: RPMI-8226 leukemia
[20] = test system: 786-0 renal
[21] = test system: OVCAR-5 ovarian
[22] = test system: NCI/ADR-RES ovarian
[23] = test system: NCI-H23 lung
[24] = test system: UACC-257 melanoma
[25] = test system: MDA-MB-435
[26] = test system: HT29 colon
[27] = test system: M14 melanoma
[28] = test system: CCRF-CEM leukemia
[29] = test system: UACC-62 melanoma
[30] = test system: OVCAR-3 ovarian
[31] = test system: SN12C renal
[32] = test system: MCF7 breast
[33] = test system: LOX IMVI melanoma
[34] = test system: COLO 205 colon
[35] = test system: SNB-19 CNS
[36] = test system: SW-620 colon
[37] = test system: HOP-92 NSCLC
[38] = test system: DU-145 prostate
[39] = test system: ACHN renal
[40] = test system: A498 renal
[41] = test system: RXF 393 renal
[42] = test system: MOLT-4 leukemia
[43] = test system: SK-OV-3 ovarian
[44] = test system: SNB-75 CNS
[45] = test system: UO-31 renal
[46] = test system: BT-549 breast
[47] = test system: K-562 leukemia
[48] = test system: NCI-H226 lung
[49] = test system: KM12 colon
[50] = test system: SF-539 CNS
[51] = test system: IGROV1 ovarian
[52] = test system: HCT-15 colon
[53] = test system: T-47D breast
[54] = test system: SK-MEL-5 melanoma
[55] = test system: U251 CNS
[56] = test system: MDA-MB-468 breast
[57] = test system: NCI-H522 lung
[58] = test system: CAKI-1 renal

CN(C)CCCNC(=O)c1cc(NC(=O)c2cc(NC(=O)c3ccc(C#Cc4ccccc4)cc3)cn2C)cn1C
GI50 [1]: 2620 nM
TGI [1]: 7.14 µM
GI50 [2]: 2110 nM
TGI [2]: 4.22 µM
GI50 [3]: 2100 nM
TGI [3]: 4.46 µM
GI50 [4]: 4.21 µM
TGI [4]: > 15.3 µM
GI50 [5]: 2570 nM
TGI [5]: 6.63 µM
GI50 [6]: 2400 nM
TGI [6]: 5.38 µM
GI50 [7]: 2760 nM
TGI [7]: 6.04 µM
GI50 [8]: 2850 nM
TGI [8]: 5.42 µM
GI50 [9]: 2560 nM
TGI [9]: 5.38 µM
GI50 [10]: 3.33 µM
TGI [10]: 9.03 µM
GI50 [11]: 2490 nM
TGI [11]: 5.18 µM
GI50 [12]: 3.7 µM
TGI [12]: 10 µM
GI50 [13]: 2530 nM
TGI [13]: 4.97 µM
GI50 [14]: 2910 nM
TGI [14]: 5.98 µM
GI50 [15]: 2400 nM
TGI [15]: 4.47 µM
GI50 [16]: 2340 nM
TGI [16]: 4.42 µM
GI50 [17]: 2840 nM
TGI [17]: 5.03 µM
GI50 [18]: 2560 nM
TGI [18]: 5.65 µM
GI50 [19]: 1760 nM
TGI [19]: 5.89 µM
GI50 [20]: 2650 nM
TGI [20]: 4.9 µM
GI50 [21]: 3.17 µM
TGI [21]: 7.43 µM
GI50 [22]: 2850 nM
TGI [22]: 7.02 µM
GI50 [23]: 2760 nM
TGI [23]: 5.37 µM
GI50 [24]: 2120 nM
TGI [24]: 4.77 µM
GI50 [25]: 2210 nM
TGI [25]: 4.39 µM
GI50 [26]: 2560 nM
TGI [26]: 6.64 µM
GI50 [27]: 2260 nM
TGI [27]: 4.54 µM
GI50 [28]: 1660 nM
TGI [28]: 6.46 µM
GI50 [29]: 1930 nM
TGI [29]: 4.07 µM
GI50 [30]: 1830 nM
TGI [30]: 4.13 µM
GI50 [31]: 2030 nM
TGI [31]: 4.09 µM
GI50 [32]: 580 nM
TGI [32]: 2380 nM
GI50 [33]: 2240 nM
TGI [33]: 4.31 µM
GI50 [34]: 3.17 µM
TGI [34]: 5.82 µM
GI50 [35]: 2840 nM
TGI [35]: 5.01 µM
GI50 [36]: 2870 nM
TGI [36]: 6.02 µM
GI50 [37]: 611 nM
TGI [37]: 3.47 µM
GI50 [38]: 2550 nM
TGI [38]: 5.18 µM
GI50 [39]: 2740 nM
TGI [39]: 6 µM
GI50 [40]: 3 µM
TGI [40]: 8.96 µM
GI50 [41]: 1610 nM
TGI [41]: 3.84 µM
GI50 [42]: 2400 nM
TGI [42]: 7.24 µM
GI50 [43]: 5.58 µM
TGI [43]: > 15.3 µM
GI50 [44]: 2480 nM
TGI [44]: > 15.3 µM
GI50 [45]: 3.08 µM
TGI [45]: 12.2 µM
GI50 [46]: 1790 nM
TGI [46]: 3.94 µM
GI50 [47]: 2740 nM
TGI [47]: 7.99 µM
GI50 [48]: 2280 nM
TGI [48]: 4.79 µM
GI50 [49]: 2930 nM
TGI [49]: 6.81 µM
GI50 [50]: 2480 nM
TGI [50]: 4.7 µM
GI50 [51]: 4.95 µM
TGI [51]: > 15.3 µM
GI50 [52]: 2230 nM
TGI [52]: 4.48 µM
GI50 [53]: 2070 nM
TGI [53]: 4.94 µM
GI50 [54]: 2340 nM
TGI [54]: 4.37 µM
GI50 [55]: 2450 nM
TGI [55]: 5.93 µM
GI50 [56]: 2340 nM
TGI [56]: 4.43 µM
GI50 [57]: 2560 nM
TGI [57]: 5.16 µM
GI50 [58]: 2850 nM
TGI [58]: 7.97 µM
